Test results published in ChEMBL document CHEMBL3507680, “University of Dundee, Gates Library screen for HepG2 cell viability”.

Experiment: Human HepG2 cell viability assay in 384 well format
Type: toxicity, cell-based
Set-up: dose 125 nL, time 70.5 hour; cytotoxicity at 70.5 h: concentration not given beside the values
Conditions: HepG2 cells, read-out: Inhibition
For CC(=O)N1CCC(NS(=O)(=O)c2cccnc2)CC1, the cytotoxicity at 70.5 h was 8%.
For Cc1ccc(OCC(O)CN(C)CC(=O)Nc2cc(C)on2)c(C)c1 (stereo not given), the cytotoxicity at 70.5 h was 10.1%.
With COCC(C)N(C)C(=O)NC1CCN(c2ncccn2)CC1 (stereo not given) the cytotoxicity at 70.5 h was 7.61%.
With Cc1ccc2cc(C(=O)NCCN3CCS(=O)(=O)CC3)c(C)nc2c1 the cytotoxicity at 70.5 h was -15.9%.
Work on CN(C)C(=O)CCCS(=O)(=O)Cc1cc(Cl)c2c(c1)OCCO2 yielded a cytotoxicity at 70.5 h of -4.96%.
CCOCCNC(=O)C(CCSC)NC(=O)c1ccc2ccccc2n1 (stereo not given) showed a cytotoxicity at 70.5 h of 5.06%.
CSCCC(NC(=O)c1ccc2ccccc2n1)C(=O)NC1CC1 (stereo not given) gave a cytotoxicity at 70.5 h of -8.01%.
COc1ccnc(NC2CCN(CC(=O)N3CCCC3)CC2)n1 gave a cytotoxicity at 70.5 h of -4.69%.
Cc1ccc(OCC(O)CN(C)CC(=O)NC(C)C)c(C)c1 (stereo not given) gave a cytotoxicity at 70.5 h of 3.84%.
In the case of O=C(CN1CCC(Nc2ncccn2)CC1)Nc1ccccc1, the cytotoxicity at 70.5 h is reported as -5.9%.
Cn1cc(C(=O)OCC(N)=O)c(-c2ccc(F)cc2F)n1 gave a cytotoxicity at 70.5 h of -7.24%.
For O=C1CCN(C(=O)CCc2cc(Br)cs2)CCN1, the cytotoxicity at 70.5 h was -10.5%.
CN(C)C1CCN(C(=O)CCc2cc(Br)cs2)CC1 showed a cytotoxicity at 70.5 h of -0.796%.
For Cc1nccn1-c1ccc(CNC(=O)c2ccc[nH]2)cn1, the cytotoxicity at 70.5 h was -6.51%.
With CN(C)c1nccc(N(C)C2CCOCC2)n1 the cytotoxicity at 70.5 h was -2.99%.
In the case of CS(=O)(=O)CCCNC1(c2cccc(Cl)c2)CCCC1, the cytotoxicity at 70.5 h is reported as -5.23%.
With Cc1nnc(SCCC(=O)N(C)Cc2ccc(F)cc2F)[nH]1 the cytotoxicity at 70.5 h was 4.62%.
In the case of Cc1nnc(SCCC(=O)N(C)Cc2ccc(F)cc2Cl)[nH]1, the cytotoxicity at 70.5 h is reported as -4.47%.
CCCc1nc(C(C)(C)NC(=O)c2ccnn2C)no1 showed a cytotoxicity at 70.5 h of -2.57%.
Work on CCN(Cc1csc(CS(C)(=O)=O)n1)c1cccc(CO)c1 yielded a cytotoxicity at 70.5 h of -6.41%.
In the case of CS(=O)(=O)CCCNC1(c2cccc(F)c2)CC1, the cytotoxicity at 70.5 h is reported as -7.6%.
In the case of CC(c1ccccc1)N(C)C(=O)CNCCn1cccn1 (stereo not given), the cytotoxicity at 70.5 h is reported as -10.3%.
In the case of CN(C)c1cc(CNC(=O)NCC2(C)CCCS2)ccn1 (stereo not given), the cytotoxicity at 70.5 h is reported as 10.1%.
O=C(Nc1ccnn1Cc1ccc(Cl)cc1)C1CCS(=O)(=O)C1 (stereo not given) showed a cytotoxicity at 70.5 h of -8.12%.
Compound CS(=O)(=O)c1ccc(NCCC2CCCO2)c(S(C)(=O)=O)c1 (stereo not given) has a cytotoxicity at 70.5 h of -16.8%.
Work on CSCC(=O)NS(=O)(=O)c1ccc(C#N)c(C(F)(F)F)c1 yielded a cytotoxicity at 70.5 h of -8.4%.
CS(=O)(=O)c1cc(S(N)(=O)=O)ccc1NCC1CCCO1 (stereo not given) showed a cytotoxicity at 70.5 h of -3.22%.
Work on COc1ccccc1C(C)NC(=O)NCCC(=O)NC1CCCCC1 (stereo not given) yielded a cytotoxicity at 70.5 h of -16.1%.
In the case of N#Cc1c(F)cccc1N1CCCC(C(=O)Nc2nccs2)C1 (stereo not given), the cytotoxicity at 70.5 h is reported as -19.5%.
CC(=O)N1CCC(NC(=O)c2ccc3c(c2O)OC(C)(C)C3)CC1 showed a cytotoxicity at 70.5 h of -12.2%.
CCCNC(=O)NC(=O)CNc1c(F)cccc1N1CCCC1 gave a cytotoxicity at 70.5 h of -17.8%.
For CC(C)COC1CCN(S(=O)(=O)Cc2cccc(F)c2)CC1, the cytotoxicity at 70.5 h was -14.2%.
For COc1ccnc(N2CCN(Cc3nc(-c4ccoc4)no3)CC2)c1, the cytotoxicity at 70.5 h was -0.129%.
In the case of N#CC1(NC(=O)c2ccc(-c3nc(C4CC4)n[nH]3)cc2)CCSC1 (stereo not given), the cytotoxicity at 70.5 h is reported as -18.6%.
O=C(Nc1cccnn1)NC(CCCO)c1ccccc1 (stereo not given) gave a cytotoxicity at 70.5 h of -14.5%.
N#CC1(NC(=O)c2ccc(-c3nc(C4CC4)n[nH]3)cc2)CCC1 gave a cytotoxicity at 70.5 h of -16.7%.
Compound N#Cc1cc(F)ccc1Cn1cnc(C2CCC2)cc1=O has a cytotoxicity at 70.5 h of 1.8%.
For COCC1CCCN(C(=O)c2ccc(NC(=O)CC(C)C)c(C)c2)C1 (stereo not given), the cytotoxicity at 70.5 h was -17.4%.
For Cc1ccc(CN(C)C(=O)c2cnsn2)cc1, the cytotoxicity at 70.5 h was 4.93%.
COCCN1CCN(Cc2nc(-c3ccoc3)no2)CC1 gave a cytotoxicity at 70.5 h of -4.32%.
Work on Cc1cc(NC(=O)C(C)N2CCN(c3ccc(C#N)cc3F)CC2)no1 (stereo not given) yielded a cytotoxicity at 70.5 h of -11.7%.
For CC(C)(C)c1nc(NS(=O)(=O)c2ccc(F)cc2)no1, the cytotoxicity at 70.5 h was -17.2%.
Work on CCOCC(=O)NCCc1ccc(I)s1 yielded a cytotoxicity at 70.5 h of 18.6%.
For Cc1cc(C(=O)N2CCCC2)ccc1NCCOCC(F)(F)F, the cytotoxicity at 70.5 h was 9.16%.
In the case of CC(CO)(NC(=O)Nc1nnc(C(F)F)s1)C1CC1 (stereo not given), the cytotoxicity at 70.5 h is reported as 4%.
Compound Cc1cccc2c(CCNS(=O)(=O)C3CCOC3)c[nH]c12 (stereo not given) has a cytotoxicity at 70.5 h of 12.8%.
Compound Cc1c(C(=O)NCCC(=O)N2CCOCC2)oc2c(C)cccc12 has a cytotoxicity at 70.5 h of -12.9%.
In the case of COC(=O)CN(Cc1ccccc1C)C(=O)CCNC(=O)C(C)(C)C, the cytotoxicity at 70.5 h is reported as -6.72%.
Work on CC(C)(C)C(O)CN1CCN(CC(=O)NCC(F)(F)F)CC1 (stereo not given) yielded a cytotoxicity at 70.5 h of 13.1%.
With CC(Nc1ccc(CC(=O)N(C)C)cc1)C(=O)N(C)CCC#N (stereo not given) the cytotoxicity at 70.5 h was -12.3%.
CC(CO)(NC(=O)Nc1nncs1)C1CCCCC1 (stereo not given) gave a cytotoxicity at 70.5 h of 2.4%.
With Cc1nncn1CCNC(=O)C(C)(C)c1cccc(C(F)(F)F)c1 the cytotoxicity at 70.5 h was -9.3%.
Cc1nncn1CCNC(=O)C(C)(C)c1cccc(F)c1 gave a cytotoxicity at 70.5 h of -7.47%.
Compound O=S(=O)(NCCc1c[nH]c2cc(F)ccc12)C1CCOC1 (stereo not given) has a cytotoxicity at 70.5 h of 0.583%.
Work on CN1CCN(Cc2cccc(NCc3ncc[nH]3)c2)CC1 yielded a cytotoxicity at 70.5 h of 8%.
